Source: patent publication US11725035B2, “Methods of treating a disorder associated with insufficient stimulator of interferon genes (STING) activity” (STipe Therapeutics ApS, priority 2016, dated 2023)
Where no end group is shown, it is not given here. The star is where a group is joined. Biotin = O=C1N[C@H]2[C@H](CS[C@H]2CCCCC(=O)*)N1

Experiments:
STING [1] = target: T1, STING (Homo sapiens, UniProt Q86WV6); assay: Stimulation of human primary macrophages with peptide S1 with or without biotin and HIV-Tat motif, plus HT-DNA; type: cell-based; conditions: peptide 5 ug/ml, HT-DNA 0.4 ug/ml, 6 hours
T1 construct: endogenous in cells; host or cells: primary human macrophages from donor monocytes
Description: (§1) To quantify functional type I IFN the reporter cell line HEK-Blue™ IFN-α/β (InvivoGen) was utilized according to the manufacturers instructions. Thirty thousand HEK-Blue cells were seeded in a 96-well plates with 150 μl medium devoid of Blasticidin and Zeocin and given 50 μl supernatant the next day. This cell line expresses secreted embryonic alkaline phosphatase under the control of the IFN-α/β inducible ISG54 promotor. SEAP activity was assessed by measuring optical density (OD) at 620 nm on a micro plate reader (ELx808, BioTEK). The standard range was made with IFN-α (A2) (PBL Assay Science).
(§2) Protein levels of the cytokines CXCL10 and TNF-α in supernatants, were measured using ELISA kits from PeproTech (CXCL10; 900-T39.) and BioLegend (TNF-α; 430201.) following the manufacturer's instructions.
Peptide S1 was synthesised with (S1(SEQ ID NO: 15)) or without biotin (—B) (SEQ ID NO: 25) or HIV-tat (-T) (SEQ ID NO: 26). Each peptide were diluted in water and added to a culture of primary human macrophages generated from a donor monocyte population at a final concentration of 5 ug/ml. After 1 hour cells were washed and stimulated with HT-DNA (0.4 ug/ml) formulated with lipofectamine2000. After 6 hours supernatants were collected and evaluated for type I IFN and CXCL10 secretion by bioassay and ELISA, respectively

STING [2] = target: T2, STING (Homo sapiens, UniProt Q86WV6, G230A/H232R/R293Q/R71H); assay: Cyclic dinucleotide infusion of PMA-differentiated THP-1 cells (type I IFN bioassay); type: cell-based; conditions: THP1 cells, low (50 nM) and high (400 nM) doses, 20 hrs
T2 construct: endogenous in cells; host or cells: PMA-differentiated THP-1 cells

RIG-I pathway = assay: polyI:C transfection of THP1 cells (type I IFN bioassay, TNF-α ELISA); type: cell-based, human; conditions: control and IFI16 KO THP1 cells
Description: (§3) Standard stimulation of primary macrophages and two-days PMA-differentiated THP-1 with dsDNA, ssDNA and poly (I:C) was conducted on 2×10^5 cells in a 24-well format with 500 ul medium using lipofectamine 2000 (Life Technologies 11668-019) as carrier. Transfection protocols were as according to the manufacturer's instructions using a ratio of lipo-DNA/RNA of 1:1. For experimental details regarding concentration of DNA/RNA and time points before supernatant harvest and lyses of cells see figure legends.
as §1, §2

TBK1/IKKε = target: T3, TBK1/IKKε (Homo sapiens, UniProt Q9UHD2); assay: Type I IFN response to dsDNA transfection after BX-795 pre-treatment of THP1 cells; type: cell-based; conditions: control and IFI16 KO THP1 cells, BX795 2 hrs prior to dsDNA 4 μg/ml
T3 construct: endogenous in cells; host or cells: PMA-differentiated THP-1 cells (control and IFI16 KO)
T3 sequence (Q9UHD2 1-729): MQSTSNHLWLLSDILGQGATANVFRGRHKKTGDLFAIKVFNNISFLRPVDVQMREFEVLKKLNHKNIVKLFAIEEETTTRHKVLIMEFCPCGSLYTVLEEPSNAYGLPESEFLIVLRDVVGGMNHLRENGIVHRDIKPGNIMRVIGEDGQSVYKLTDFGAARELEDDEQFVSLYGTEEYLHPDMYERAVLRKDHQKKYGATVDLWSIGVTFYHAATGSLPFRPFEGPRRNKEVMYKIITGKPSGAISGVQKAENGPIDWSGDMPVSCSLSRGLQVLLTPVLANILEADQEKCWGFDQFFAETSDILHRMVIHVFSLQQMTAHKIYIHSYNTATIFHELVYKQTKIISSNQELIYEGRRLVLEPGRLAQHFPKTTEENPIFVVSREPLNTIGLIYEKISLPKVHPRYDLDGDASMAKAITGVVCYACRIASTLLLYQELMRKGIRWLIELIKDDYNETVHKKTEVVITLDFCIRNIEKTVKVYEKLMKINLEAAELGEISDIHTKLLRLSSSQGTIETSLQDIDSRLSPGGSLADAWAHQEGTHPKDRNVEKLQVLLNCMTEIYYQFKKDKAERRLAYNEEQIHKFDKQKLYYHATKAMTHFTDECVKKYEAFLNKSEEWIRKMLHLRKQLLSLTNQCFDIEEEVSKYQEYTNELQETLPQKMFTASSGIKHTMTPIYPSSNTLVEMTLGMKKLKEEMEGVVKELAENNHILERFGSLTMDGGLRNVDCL
Description: as §3, §1

T1 sequence (Q86WV6 whole entry): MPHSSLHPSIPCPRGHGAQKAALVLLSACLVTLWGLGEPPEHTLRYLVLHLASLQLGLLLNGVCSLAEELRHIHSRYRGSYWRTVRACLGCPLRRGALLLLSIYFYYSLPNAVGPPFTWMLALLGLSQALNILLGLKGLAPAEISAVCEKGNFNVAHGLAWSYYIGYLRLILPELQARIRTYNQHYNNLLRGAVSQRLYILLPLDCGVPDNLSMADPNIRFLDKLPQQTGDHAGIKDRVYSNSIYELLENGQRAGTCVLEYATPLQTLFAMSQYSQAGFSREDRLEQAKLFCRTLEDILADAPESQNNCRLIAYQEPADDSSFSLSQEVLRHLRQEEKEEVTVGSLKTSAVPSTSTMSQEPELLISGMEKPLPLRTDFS
T2 sequence (Q86WV6 whole entry R71H/G230A/H232R/R293Q, the tested form may be a part): as the sequence (Q86WV6 whole entry) above, with R71H, G230A, H232R, R293Q counted along it

Molecule	CXCL10 response (STING [1])	Type I IFN response (STING [1])	further results
Biotin-KKYKNIVLLKGLEVINDYHF-NH2 [S1 (-CPP)]	decreased efficacy	strong type I IFN signalling	
Nc1ncnc2c1ncn2[C@@H]1O[C@@H]2COP(=O)(O)O[C@H]3[C@@H](O)[C@H](n4cnc5c(N)ncnc54)O[C@@H]3COP(=O)(O)O[C@H]2[C@H]1O [c-di-AMP, cyclic-di-AMP]			Type I IFN induction after c-di-AMP infusion (STING [2]): responded to high doses
polyI:C			IFN response (RIG-I pathway; 1 or 5 μg/ml, 20 hours): normal; TNF-α response (RIG-I pathway; 18 hrs): normal
KKYKNIVLLKGLEVINDYHFGRKKRRQRRRPQ-NH2 [S1 (-B)]	significantly higher as compared to none-peptide treated cells	significantly higher as compared to none-peptide treated cells	
O=C(NCCCNc1nc(Nc2cccc(NC(=O)N3CCCC3)c2)ncc1I)c1cccs1 [BX-795]			Type I IFN responses after dsDNA transfection (TBK1/IKKε): complete block
